Laboratory results reported in the NIST ThermoML archive (doi:10.1016/j.tca.2013.09.006).

Assays:
[1] = mn = molality of the nth substance listed, in mol/kg; conditions: 101 kPa, Liquid; for mass density: Vibrating tube method; for speed of sound: vibrating tube:WF =
[2] = 101 kPa, Liquid; for mass density: Vibrating tube method; for speed of sound: vibrating tube

CC1(C)SC2C(NC(=O)C(N)c3ccccc3)C(=O)N2C1C(=O)O (centres undefined) + O
[1]
Conditions | mass density, 305.15 K [kg/m3] | mass density, 310.15 K [kg/m3] | mass density, 315.15 K [kg/m3] | speed of sound, 305.15 K [m/s] | speed of sound, 310.15 K [m/s] | speed of sound, 315.15 K [m/s]
m1 = 0.0005 | 995.062 | 993.352 | 991.353 | 1513.7 | 1523.7 | 1532.2
m1 = 0.002 | 995.271 | 993.569 | 991.665 | 1514.8 | 1524.8 | 1533
m1 = 0.004 | 995.458 | 993.755 | 991.87 | 1516 | 1526 | 1534

C[C@H](N)C(=O)N[C@@H](C)C(=O)O [L-alanyl-L-alanine] + O
[1]
Conditions | mass density, 305.15 K [kg/m3] | mass density, 310.15 K [kg/m3] | mass density, 315.15 K [kg/m3] | speed of sound, 305.15 K [m/s] | speed of sound, 310.15 K [m/s] | speed of sound, 315.15 K [m/s]
m1 = 0.00215 | 995.223 | 993.535 | 991.641 | 1514.2 | 1524.5 | 1532.9
m1 = 0.00421 | 995.35 | 993.662 | 991.767 | 1514.4 | 1524.8 | 1533
m1 = 0.00596 | 995.458 | 993.769 | 991.873 | 1514.5 | 1524.9 | 1533.1
m1 = 0.00831 | 995.604 | 993.913 | 992.016 | 1514.7 | 1525.1 | 1533.2
m1 = 0.00955 | 995.68 | 993.989 | 992.092 | 1514.9 | 1525.3 | 1533.4
m1 = 0.01169 | 995.812 | 994.12 | 992.222 | 1515 | 1525.5 | 1533.6
m1 = 0.01422 | 995.968 | 994.275 | 992.376 | 1515.2 | 1525.6 | 1533.7
m1 = 0.01594 | 996.074 | 994.38 | 992.48 | 1515.3 | 1525.8 | 1533.9
m1 = 0.01778 | 996.187 | 994.493 | 992.592 | 1515.5 | 1526 | 1534.1
m1 = 0.01983 | 996.314 | 994.618 | 992.716 | 1515.7 | 1526.2 | 1534.2

CC(C)C[C@H](NC(=O)[C@H](C)N)C(=O)O [L-alanyl-L-leucine] + O
[1]
Conditions | mass density, 305.15 K [kg/m3] | mass density, 310.15 K [kg/m3] | mass density, 315.15 K [kg/m3] | speed of sound, 305.15 K [m/s] | speed of sound, 310.15 K [m/s] | speed of sound, 315.15 K [m/s]
m1 = 0.00185 | 995.164 | 993.476 | 991.582 | 1514.3 | 1524.7 | 1533.2
m1 = 0.00389 | 995.246 | 993.556 | 991.661 | 1514.4 | 1525 | 1533.4
m1 = 0.00579 | 995.323 | 993.631 | 991.734 | 1514.6 | 1525.2 | 1533.7
m1 = 0.00813 | 995.416 | 993.723 | 991.825 | 1514.7 | 1525.4 | 1533.9
m1 = 0.00966 | 995.478 | 993.783 | 991.884 | 1514.9 | 1525.7 | 1534
m1 = 0.0122 | 995.579 | 993.883 | 991.982 | 1515 | 1525.9 | 1534.3
m1 = 0.01422 | 995.66 | 993.962 | 992.06 | 1515.1 | 1526 | 1534.5
m1 = 0.01589 | 995.727 | 994.027 | 992.124 | 1515.3 | 1526.3 | 1534.7
m1 = 0.01753 | 995.792 | 994.092 | 992.188 | 1515.5 | 1526.6 | 1534.9
m1 = 0.02055 | 995.913 | 994.21 | 992.304 | 1515.6 | 1526.7 | 1535

CC(C)[C@H](NC(=O)[C@H](C)N)C(=O)O [L-alanyl-L-valine] + O
[1]
Conditions | mass density, 305.15 K [kg/m3] | mass density, 310.15 K [kg/m3] | mass density, 315.15 K [kg/m3] | speed of sound, 305.15 K [m/s] | speed of sound, 310.15 K [m/s] | speed of sound, 315.15 K [m/s]
m1 = 0.00201 | 995.187 | 993.499 | 991.606 | 1514.3 | 1524.8 | 1533.5
m1 = 0.00414 | 995.289 | 993.601 | 991.707 | 1514.5 | 1525 | 1533.7
m1 = 0.00605 | 995.381 | 993.692 | 991.798 | 1514.6 | 1525.2 | 1534
m1 = 0.00791 | 995.471 | 993.781 | 991.886 | 1514.8 | 1525.5 | 1534.1
m1 = 0.01019 | 995.58 | 993.89 | 991.994 | 1515 | 1525.7 | 1534.3
m1 = 0.01179 | 995.657 | 993.966 | 992.07 | 1515.2 | 1525.9 | 1534.4
m1 = 0.01396 | 995.761 | 994.07 | 992.173 | 1515.4 | 1526.1 | 1534.6
m1 = 0.01551 | 995.835 | 994.143 | 992.246 | 1515.6 | 1526.4 | 1534.8
m1 = 0.01805 | 995.957 | 994.264 | 992.366 | 1515.8 | 1526.7 | 1535
m1 = 0.01971 | 996.037 | 994.343 | 992.445 | 1515.9 | 1526.9 | 1535.2

O [water]
[2]
Conditions | mass density [kg/m3] | speed of sound [m/s]
305.15 K | 995.09 | 1513.5
310.15 K | 993.403 | 1523.5
315.15 K | 991.51 | 1532.2
